Assay results taken from patent US20240317748A1, “CARBONYL SUBSTITUTED DIAZASPIRO COMPOUNDS AND ITS USE” (BIONOVA PHARMACEUTICALS (SHANGHAI) LIMITED, priority 2021, published 2024).

System: MV-4-11 cells
Test: Cell proliferation assay (CellTiter-Glo), MV-4-11
Assay type: cell-based, human
Details: Homo sapiens, MV4-11, 96 h; MV-4-11 (MLL-AF4), 4 days incubation; read-out: Cell antiproliferation assay MV-4-11 IC50
Procedure: (§1) The antiproliferative activity of test compounds was assessed in human leukemia cell lines. The cell line MV4-11, MOLM13 and OCI-AML3, which expresses the MLL fusion protein MLL-AF4, MLL-AF9 and carry the NPM1c gene mutation, respectively, were tested. HL-60 was used as a control cell line containing two MLL wildtype alleles in order to exclude compounds that display general cytotoxic effect. MV4-11 cells were cultured in IMDM supplemented with 10% FBS, MOLM13 and OCI-AML3 cells were cultured in RPMI1640 supplemented with 20% FBS, and HL-60 cells were cultured in IMDM supplemented with 20% FBS. Corresponding cells (MV4-11, MOLM13, OCI-AML3 or HL-60 cell line) were seeded in 100 uL medium per well in 96-well plate (white wall with clear bottom, tissue culture treated, Corning, Cat. No. CLS3903; Lot.No. 30419025). Plates were placed in the CO2 incubator overnight. Compounds solution (2 mM starting, 4-fold serial dilution) were prepared and added to the wells containing 100 μL of the culture medium with HPD300 according to the plate map and centrifuge at 1000 rpm for 1 minutes (200-fold dilution totally). MV4-11, MOLM13, OCI-AML3 and HL-60 cells were incubated with the compounds for 4, 12, 5 and 4 days, respectively, under 5% CO2 at 37° C., respectively. 100 μL of CellTiter-Glo reagent (Promega, Cat. No. G7573, Lot. No. 0000416710) was added to the assay plate by Multidrop Combi instrument, contents were mixed for 10 minutes on an orbital shaker to induce cell lysis. After incubation at room temperature for 10 mins, clear bottom with white back seal was pasted and luminescence with Envision was read.

Structure (SMILES)	IC50 [nM]
N#Cc1ccc(-c2cc(F)ccc2Oc2nncnc2N2CC3(CCN(C(=O)[C@H]4NC[C@@H]5C[C@@H]54)CC3)C2)c(C2CC2)c1 [Example 78]	6.5
CCN(C(=O)c1cc(F)ccc1Oc1cncnc1N1CC2(CCN(C(=O)[C@@H]3C[C@@H](C)CN3)CC2)C1)C(C)C [Example 47]	15.9
CC(C)N(CCO)C(=O)c1cc(F)ccc1Oc1cncnc1N1CC2(CCN(C(=O)[C@@H]3C[C@@H](F)CN3)CC2)C1 [Example 49]	57.3

The next lines start with the values.

IC50 [nM]	Structure (SMILES)
76.7	CCN(C(=O)c1cc(F)ccc1Oc1nncnc1N1CC2(CCN(C(=O)[C@H]3NCc4ccccc43)CC2)C1)C(C)C [Example 85]
43.4	CCN(C(=O)c1cc(F)ccc1Oc1nncnc1N1CC2(CCN(C(=O)[C@H]3NCC[C@H]3C)CC2)C1)C(C)C [Example 63]

System: OCI-AML3 cells
Test: Cell proliferation assay (CellTiter-Glo), OCI-AML3
Assay type: cell-based, human
Details: Homo sapiens, OCI-AML-3, 120 h; OCI-AML3 (NPM1c mutation), 5 days incubation; read-out: Cell antiproliferation assay OCI-AML3 IC50
Procedure: as §1

IC50 [nM]	Structure (SMILES)
28.1	N#Cc1ccc(-c2cc(F)ccc2Oc2nncnc2N2CC3(CCN(C(=O)[C@H]4NC[C@@H]5C[C@@H]54)CC3)C2)c(C2CC2)c1 [Example 78]

System: HL-60 cells
Test: Cell proliferation assay (CellTiter-Glo), HL-60 control line
Assay type: cell-based, human
Details: Homo sapiens, 96 h; HL-60 control line (MLL wildtype), 4 days incubation; read-out: Cell antiproliferation assay HL-60 IC50
Procedure: as §1

IC50 [nM]	Structure (SMILES)
> 10000	CCN(C(=O)c1cc(F)ccc1Oc1nncnc1N1CC2(CCN(C(=O)[C@H]3NCc4ccccc43)CC2)C1)C(C)C [Example 85]
> 10000	N#Cc1ccc(-c2cc(F)ccc2Oc2nncnc2N2CC3(CCN(C(=O)[C@H]4NC[C@@H]5C[C@@H]54)CC3)C2)c(C2CC2)c1 [Example 78]
> 10000	CCN(C(=O)c1cc(F)ccc1Oc1cncnc1N1CC2(CCN(C(=O)[C@@H]3C[C@@H](C)CN3)CC2)C1)C(C)C [Example 47]
> 10000	CC(C)N(CCO)C(=O)c1cc(F)ccc1Oc1cncnc1N1CC2(CCN(C(=O)[C@@H]3C[C@@H](F)CN3)CC2)C1 [Example 49]

Same assay, conditions: Homo sapiens, 96 h; HL-60 control line, 10 μM, 4 days incubation; read-out: HL-60 (Pct of inhibition at 10 μM)

Structure (SMILES)	inhibition at 10 µM [%]
CCN(C(=O)c1cc(F)ccc1Oc1nncnc1N1CC2(CCN(C(=O)[C@H]3NCc4ccccc43)CC2)C1)C(C)C [Example 85]	-2.8
N#Cc1ccc(-c2cc(F)ccc2Oc2nncnc2N2CC3(CCN(C(=O)[C@H]4NC[C@@H]5C[C@@H]54)CC3)C2)c(C2CC2)c1 [Example 78]	40
CCN(C(=O)c1cc(F)ccc1Oc1cncnc1N1CC2(CCN(C(=O)[C@@H]3C[C@@H](C)CN3)CC2)C1)C(C)C [Example 47]	-10.6
CC(C)N(CCO)C(=O)c1cc(F)ccc1Oc1cncnc1N1CC2(CCN(C(=O)[C@@H]3C[C@@H](F)CN3)CC2)C1 [Example 49]	-8.4

Target: T1, Menin-MLL1 (Homo sapiens, UniProt O00255)
T1 construct: Menin (2-610) isform2; purchased ChemPartner 2020111101
T1 sequence (O00255 2-610): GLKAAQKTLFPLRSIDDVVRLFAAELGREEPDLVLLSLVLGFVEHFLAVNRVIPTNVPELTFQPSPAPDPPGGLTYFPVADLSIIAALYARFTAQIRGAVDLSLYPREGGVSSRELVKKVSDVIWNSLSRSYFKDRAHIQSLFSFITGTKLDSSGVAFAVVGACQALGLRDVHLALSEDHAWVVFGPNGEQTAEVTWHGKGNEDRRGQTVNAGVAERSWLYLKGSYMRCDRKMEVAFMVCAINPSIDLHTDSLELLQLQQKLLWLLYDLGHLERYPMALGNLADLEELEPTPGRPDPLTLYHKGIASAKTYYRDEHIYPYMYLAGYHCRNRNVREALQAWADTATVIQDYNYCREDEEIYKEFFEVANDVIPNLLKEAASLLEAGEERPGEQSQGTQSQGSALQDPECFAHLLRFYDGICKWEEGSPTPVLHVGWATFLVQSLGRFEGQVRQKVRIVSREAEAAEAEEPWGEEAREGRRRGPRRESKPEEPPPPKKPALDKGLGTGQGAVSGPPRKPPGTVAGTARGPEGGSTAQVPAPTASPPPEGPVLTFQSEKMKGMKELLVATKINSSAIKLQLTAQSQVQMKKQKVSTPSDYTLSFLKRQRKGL
Test: Menin-MLL1 inhibition assay (fluorescence polarization, Menin protein + FAM-MLL peptide)
Assay type: binding
Details: Menin (2-610) isoform 2, FAM-labelled MLL peptide, mP readout; read-out: Biochemical assay Menin-MLL1 IC50
Procedure: 1× assay bu9ffer (Tris 7.5 50 mM, NaCl 50 mM, DTT 1 mM, Tween-20 0.01%) was prepared and test compounds solution (10 mM in DMSO, Sigma, Cat. No. 34869) were transferred to assay plate (384-well plate, Perkin Elmer, Cat. No. 6007279) by Echo. The final fraction of DMSO is 1%. 20 nM of Menin protein (Menin (2-610) isform2, ChemPartner, Cat. No. 2020111101) in 1× assay buffer was added to prepare 2× enzyme solution. Then 10 nM of MLL-peptide (Ac-SRWRFPARPGTGRR-Ahx-Ahx-K(FAM)-NH2, GL Biochem (Shanghai)), Cat. No. 833831/202009220104) in 1× assay buffer was added to prepare 2× substrate solution. 10 μL of 2× enzyme solution was transferred to assay plate or 10 μL of 1× assay buffer for low control group. 10 μL of 2× substrate solution was added to each well to start reaction. mP data on Envision (Ex480/Em535(s), Em535(p)) was collected.
Compound potencies were determined by first calculating % inhibition at each compound concentration according to equation 1:
Inhibition %=(Max−Signal)/(Max−Min)*100 (Equation 1)
Y=Bottom+(Top-Bottom)/(1+(IC50/X)[…]), where Y is % inhibition and X is compound concentration (Equation 2)

Structure (SMILES)	IC50 [nM]
N#Cc1ccc(-c2cc(F)ccc2Oc2nncnc2N2CC3(CCN(C(=O)[C@H]4NC[C@@H]5C[C@@H]54)CC3)C2)c(C2CC2)c1 [Example 78]	2.9
CCN(C(=O)c1cc(F)ccc1Oc1cncnc1N1CC2(CCN(C(=O)[C@@H]3C[C@@H](C)CN3)CC2)C1)C(C)C [Example 47]	3.7
CC(C)N(CCO)C(=O)c1cc(F)ccc1Oc1cncnc1N1CC2(CCN(C(=O)[C@@H]3C[C@@H](F)CN3)CC2)C1 [Example 49]	3.6

Further lines, results first:

IC50 [nM]	Structure (SMILES)
5.5	CCN(C(=O)c1cc(F)ccc1Oc1nncnc1N1CC2(CCN(C(=O)[C@H]3NCc4ccccc43)CC2)C1)C(C)C [Example 85]
3.5	CCN(C(=O)c1cc(F)ccc1Oc1nncnc1N1CC2(CCN(C(=O)[C@H]3NCC[C@H]3C)CC2)C1)C(C)C [Example 63]

System: not listed separately
Test: Liver microsome stability study
Assay type: in vitro ADME
Details: human liver microsomes 0.5 mg/mL, 1 μM compound, NADPH, 37° C.; read-out: Human liver microsome T1/2
Procedure: Studies were carried out in liver microsomes (Corning, 0.5 mg/mL). Stock solutions were prepared at 10 mM in DMSO for the test compounds. Aliquots of the stock solutions were diluted to 0.5 mM with acetonitrile, and then further diluted upon the addition of liver microsomes/buffer to 1.5 μM. An aliquot of 30 μL of 1.5 μM solutions was mixed with 15 μL of 6 mM NADPH and the final concentration of NADPH was 2 mM, which had been pre-warmed to 37° C. Test compounds and Ketanserin final concentrations were 1 μM. The plates were kept in a 37° C. water bath for the duration of the experiment. At each time point (0, 5, 15, 30, 45 minutes), 135 μL of acetonitrile was added into corresponding wells. After the final time point was quenched by acetonitrile, the assay plates were shaken at the vibrator (IKA, MTS 2/4) for 10 min (600 rpm/min) and then centrifuged at 5,594 g for 15 min (Thermo Multifuge×3R). Aliquots of the supernatant were taken, diluted 1:1 into distilled water, and analyzed by LC-MS/MS. The peak area response ratio to internal standard (PARR) of the compounds at 5, 15, 30, 45 minutes was compared to the PARR at time 0 to determine the percent of test compound remaining at each time point. Half-lives were calculated using Excel software, fitting to a single-phase exponential decay equation.

half-life at 1 μM [h]	Structure (SMILES)
2.08	CCN(C(=O)c1cc(F)ccc1Oc1nncnc1N1CC2(CCN(C(=O)[C@H]3NCC[C@H]3C)CC2)C1)C(C)C [Example 63]

System: MOLM13 cells
Test: Cell proliferation assay (CellTiter-Glo), MOLM13
Assay type: cell-based, human
Details: Homo sapiens, MOLM-13, 288 h; MOLM13 (MLL-AF9), 12 days incubation; read-out: Cell antiproliferation assay MOLM13 IC50
Procedure: as §1

IC50 [nM]	Structure (SMILES)
14.2	N#Cc1ccc(-c2cc(F)ccc2Oc2nncnc2N2CC3(CCN(C(=O)[C@H]4NC[C@@H]5C[C@@H]54)CC3)C2)c(C2CC2)c1 [Example 78]
